Reference: patent US6469033B1, “Use of 1-hydroxy-2-pyridones for the treatment of skin diseases” (Aventis Pharma Deutschland GmbH, priority 1996, dated 2002)
Converted amounts (≈) assume the structure as drawn. Read-outs that look alike come from different tables or passages of the source.

Experiments:
[1] = system: S. aureus, ofloxacin-resistant, OFX^r; assay: Agar dilution MIC, aerobic bacteria (Mueller-Hinton agar); type: cell-based, Staphylococcus aureus; conditions: 16 strains, number in brackets = strains with that MIC, 24 hours at 37° C.
Description: (§1) Determination of the antibacterial activity of 1-hydroxy-4-methyl-6-cyclohexyl-2(1H)pyridone to skin-pathogenic gram-positive and gram-negative aerobic bacteria.
(§2) The minimal inhibitory concentration (MIC) was determined in an agar dilution test in Mueller-Hinton agar. The active compound was first dissolved in dimethyl sulfoxide at 10% strength and then diluted to twice the amount in each case in equal stages with agar so that in the end effect concentrations between 128 μg/ml and 1 μg/ml were obtained. Overnight cultures of the bacterial strains to be tested were diluted with liquid medium and employed as inoculum. The bacterial suspensions (1×10^5 cfu/ml) were applied to the surface of the active compound-containing agar plates. With the exception of the methicillin-resistant strains of Staphylococcus aureus (MRSA) and Staphylococcus epidermidis (MRSE), the MIC values were read off after 24 hours at 37° C.(MRSA and MRSE: 48 hours at 30° C.).
(§3) The lowest concentration at which growth was no longer to be observed was designated as the MIC.
(§4) Using known methods, the antibiotic-resistant bacteria investigated can be isolated from patients or from hospitals in which antibiotic resistance has been found. The other bacterial species mentioned can be isolated easily by a person skilled in the art on account of their species and generic name or ordered from a strain collection.

Enterobacter aerogenes = assay: as above; type: cell-based; conditions: Klebsiella aerogenes; 1 strain; 24 hours at 37° C.
Description: as §1, §2, §3, §4

Enterobacter cloacae = assay: as above; type: cell-based; conditions: 1 strain, 24 hours at 37° C.
Description: as §1, §2, §3, §4

Escherichia coli = assay: as above; type: cell-based; conditions: 3 strains, 24 hours at 37° C.
Description: as §1, §2, §3, §4

Klebsiella pneumoniae = assay: as above; type: cell-based; conditions: 2 strains, number in brackets = strains with that MIC, 24 hours at 37° C.
Description: as §1, §2, §3, §4

Proteus vulgaris = assay: as above; type: cell-based; conditions: 3 strains, number in brackets = strains with that MIC, 24 hours at 37° C.
Description: as §1, §2, §3, §4

Pseudomonas aeruginosa = assay: as above; type: cell-based; conditions: 5 strains, 24 hours at 37° C.
Description: as §1, §2, §3, §4

[2] = system: S. aureus, methicillin-resistant MRSA; assay: as above; type: cell-based; conditions: Staphylococcus aureus, 19 strains, read after 48 hours at 30° C.
Description: as §1, §2, §3, §4

[3] = system: S. epidermidis, methicillin-resistant, MRSE; assay: as above; type: cell-based; conditions: Staphylococcus epidermidis, 2 strains, 48 hours at 30° C.
Description: as §1, §2, §3, §4

[4] = system: S. epidermidis, ofloxacin-resistant, OFX^r; assay: as above; type: cell-based; conditions: Staphylococcus epidermidis; 4 strains; 24 hours at 37° C.
Description: as §1, §2, §3, §4

Staphylococcus aureus = assay: as above; type: cell-based; conditions: 20 strains, read after 24 hours at 37° C.
Description: as §1, §2, §3, §4

[5] = system: Staphylococcus epidermidis; assay: as above; type: cell-based; conditions: 20 strains, 24 hours at 37° C.
Description: as §1, §2, §3, §4

Strept. agalactiae = assay: as above; type: cell-based; conditions: Streptococcus agalactiae; 9 strains; 24 hours at 37° C.
Description: as §1, §2, §3, §4

Strept. durans = assay: as above; type: cell-based; conditions: Enterococcus durans, 24 h, 10 strains; number in brackets = strains with that MIC; 24 hours at 37° C.
Description: as §1, §2, §3, §4

Strept. equisimilis = assay: as above; type: cell-based; conditions: Streptococcus dysgalactiae; 1 strain; 24 hours at 37° C.
Description: as §1, §2, §3, §4

Strept. faecalis = assay: as above; type: cell-based; conditions: 3 strains, number in brackets = strains with that MIC, 24 hours at 37° C.
Description: as §1, §2, §3, §4

[6] = system: Strept. faecium, vancomycin-resistant, VAN^r; assay: as above; type: cell-based; conditions: Enterococcus faecium; 1 strain; 24 hours at 37° C.
Description: as §1, §2, §3, §4

Strept. faecium = assay: as above; type: cell-based; conditions: Enterococcus faecium; 1 strain; 24 hours at 37° C.
Description: as §1, §2, §3, §4

Streptococcus pyogenes = assay: as above; type: cell-based; conditions: 20 strains, 24 hours at 37° C.
Description: as §1, §2, §3, §4

Propionibacterium acnes = assay: Agar dilution MIC, anaerobic bacteria (Wilkins-Chalgren agar); type: cell-based
Description: as §3
In vitro activity of 1-hydroxy-4-methyl-6-cyclohexyl-2(1H)pyridone against anaerobic bacteria (the testing was carried out in an agar dilution test using Wilkins-Chalgren agar (Oxoid).

Propionibacteria = conditions: acne patients pretreated with antibiotics; cited from earlier work
[7] = system: Staphylococcus epidermidis; conditions: acne patients pretreated with antibiotics; cited from earlier work
enterococci = conditions: isolates from various centers; cited from earlier work

Cc1cc(C2CCCCC2)n(O)c(=O)c1 [1-hydroxy-4-methyl-6-cyclohexyl-2(1H)pyridone] showed an MIC [1] of 128 mg/L (≈ 618 µM), an MIC ([1]; Staphylococcus aureus, 24 h, read-out: MIC) of 64 mg/L (≈ 309 µM) and an MIC (Enterobacter aerogenes) of 128 mg/L (≈ 618 µM). The MIC (Enterobacter cloacae) was 128 mg/L (≈ 618 µM), the MIC (Escherichia coli) was 64 mg/L (≈ 309 µM) and the MIC (Klebsiella pneumoniae) was 128 mg/L (≈ 618 µM). For the same compound, the MIC (Klebsiella pneumoniae; Klebsiella pneumoniae, 24 h, read-out: MIC) was 64 mg/L (≈ 309 µM), the MIC (Proteus vulgaris) was 64 mg/L (≈ 309 µM) and the MIC (Proteus vulgaris; Proteus vulgaris, 24 h, read-out: MIC) was 32 mg/L (≈ 154 µM). The MIC (Pseudomonas aeruginosa) was 128 mg/L (≈ 618 µM), the MIC [2] was 64 mg/L (≈ 309 µM) and the MIC [3] was 64 mg/L (≈ 309 µM). For the same compound, the MIC [4] was 64 mg/L (≈ 309 µM), the MIC (Staphylococcus aureus) was 64 mg/L (≈ 309 µM) and the MIC [5] was 128 mg/L (≈ 618 µM). The MIC (Strept. agalactiae) was 128 mg/L (≈ 618 µM), the MIC (Strept. durans) was 64 mg/L (≈ 309 µM) and the MIC (Strept. equisimilis) was 128 mg/L (≈ 618 µM). The MIC (Strept. faecalis) was 128 mg/L (≈ 618 µM), the MIC (Strept. faecalis; Enterococcus faecalis, 24 h, read-out: MIC) was 64 mg/L (≈ 309 µM) and the MIC [6] was 32 mg/L (≈ 154 µM). The MIC (Strept. faecium) was 128 mg/L (≈ 618 µM), the MIC (Streptococcus pyogenes) was 64 mg/L (≈ 309 µM) and the MIC (Propionibacterium acnes; Cutibacterium acnes, DSM20458, Strain DSM 20458, read-out: MIC) was 32 mg/L (≈ 154 µM). For the same compound, the MIC (Propionibacterium acnes; Cutibacterium acnes, Strain 6919, read-out: MIC) was 32 mg/L (≈ 154 µM), the MIC (Propionibacterium acnes; Strain 6922) was 32.0 mg/L (≈ 154 µM) and the MIC (Propionibacterium acnes; Strain 15549) was 32.0 mg/L (≈ 154 µM).
For CC[C@H]1OC(=O)[C@H](C)[C@@H](O[C@H]2C[C@@](C)(OC)[C@@H](O)[C@H](C)O2)[C@H](C)[C@@H](O[C@@H]2O[C@H](C)C[C@H](N(C)C)[C@H]2O)[C@](C)(O)C[C@@H](C)C(=O)[C@H](C)[C@@H](O)[C@]1(C)O [erythromycin], the “resistances found, share of the cases” value (Propionibacteria) is listed as 36% and the “resistances found, share of the cases” value [7] is listed as 90%.
For gentamycin, the “resistances, share of isolates” value (enterococci) is given as “up to 50%”.
